The record followed here is paper PMC12951562, “SH2scan: Mapping SH2 Domain-Ligand Binding Selectivity for Inhibitors and Degraders” (Journal of Medicinal Chemistry, 2026).

Non-standard residues stand in square brackets, D forms with d. Residues, ends and D or L forms follow the SMILES beside them. *: point of attachment. pY = N[C@@H](Cc1ccc(OP(=O)(O)O)cc1)C(=O)O; Caffeoyl = O=C(/C=C/c1ccc(O)c(O)c1)*

The Kd is the equilibrium constant for the complex coming apart. A high value points to a looser complex.

Assay in all cases: biochemical
What all share (format): binding

Assay [1] addresses T1, BLK (Homo sapiens, UniProt P51451).
T1 construct: the DNA-tagged SH2 domain concentrations used in this study were <0.1 nM; made in house; host or cells: HEK293 (transient transfection; unpurified extract)
The note with it: for remaining activity at 10 µM: read-out: percent of DMSO vehicle control.

Assay [2] concerns the target T2, BLNK (Homo sapiens, UniProt Q8WV28).
T2 construct: the DNA-tagged SH2 domain concentrations used in this study were <0.1 nM; made in house; host or cells: HEK293 (transient transfection; unpurified extract)
T2 sequence (Q8WV28 346-453 limits assumed): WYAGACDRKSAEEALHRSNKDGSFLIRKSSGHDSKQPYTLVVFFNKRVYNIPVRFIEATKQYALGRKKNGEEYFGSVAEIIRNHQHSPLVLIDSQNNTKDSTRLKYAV
The note with it: for remaining activity at 10 µM: read-out: percent of DMSO vehicle control.

Assay [3] addresses T3, CBLB (Homo sapiens, UniProt Q13191).
T3 construct: the DNA-tagged SH2 domain concentrations used in this study were <0.1 nM; made in house; host or cells: HEK293 (transient transfection; unpurified extract)
The note with it: for percent of DMSO vehicle control: primary screen, 10 μM.

For assay [4], the target named is T4, GADS (Homo sapiens, UniProt O75791).
T4 construct: the DNA-tagged SH2 domain concentrations used in this study were <0.1 nM; made in house; host or cells: HEK293 (transient transfection; unpurified extract)
T4 sequence (O75791 58-149 limits assumed): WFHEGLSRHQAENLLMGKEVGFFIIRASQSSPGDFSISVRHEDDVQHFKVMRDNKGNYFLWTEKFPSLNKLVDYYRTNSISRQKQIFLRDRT
The note with it: for percent of DMSO vehicle control at 10 µM: read-out: percent of DMSO vehicle control.

Assay [5] has as its target T5, GRB14 (Homo sapiens, UniProt Q14449).
T5 construct: the DNA-tagged SH2 domain concentrations used in this study were <0.1 nM; made in house; host or cells: HEK293 (transient transfection; unpurified extract)
T5 sequence (Q14449 439-535 limits assumed): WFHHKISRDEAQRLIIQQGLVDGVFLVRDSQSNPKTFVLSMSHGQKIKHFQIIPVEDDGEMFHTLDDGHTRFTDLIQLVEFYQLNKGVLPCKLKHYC
The note with it: for remaining activity at 10 µM: read-out: percent of DMSO vehicle control.

Assay [6] concerns the target T6, NCK2 (Homo sapiens, UniProt O43639).
T6 construct: the DNA-tagged SH2 domain concentrations used in this study were <0.1 nM; made in house; host or cells: HEK293 (transient transfection, unpurified extract)
T6 sequence (O43639 285-380 limits assumed): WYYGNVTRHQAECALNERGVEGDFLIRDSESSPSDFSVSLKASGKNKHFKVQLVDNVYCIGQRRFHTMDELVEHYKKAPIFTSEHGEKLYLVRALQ
The conditions noted are these: for remaining activity at 10 µM: read-out: percent of DMSO vehicle control.

Assay [7] addresses T7, PIK3R1(SH2dom.N-term.) (Homo sapiens, UniProt P27986).
T7 construct: SH2dom.N-term. denotes SH2 domain closest to N-terminus of protein; made in house; host or cells: HEK293 (transient transfection, unpurified extract)
The note with it: for remaining activity at 10 µM: read-out: percent of DMSO vehicle control.

Assay [8] concerns the target T8, PLCG1(SH2dom.N-term.) (Homo sapiens, UniProt P19174).
T8 construct: SH2dom.N-term. denotes SH2 domain closest to N-terminus of protein; made in house; host or cells: HEK293 (transient transfection, unpurified extract)
T8 sequence (P19174 550-657 limits assumed): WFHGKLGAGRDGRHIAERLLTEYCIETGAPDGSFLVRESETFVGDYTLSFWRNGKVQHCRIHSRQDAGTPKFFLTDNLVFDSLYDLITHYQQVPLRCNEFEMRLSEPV
The note with it: for remaining activity at 10 µM: read-out: percent of DMSO vehicle control.

In assay [9] the target is T9, PTPN6(SH2dom.C-term.) (Homo sapiens, UniProt P29350).
T9 construct: SH2dom.C-term. denotes SH2 domain closest to C-terminus of protein; made in house; host or cells: HEK293 (transient transfection, unpurified extract)
T9 sequence (P29350 110-213 limits assumed): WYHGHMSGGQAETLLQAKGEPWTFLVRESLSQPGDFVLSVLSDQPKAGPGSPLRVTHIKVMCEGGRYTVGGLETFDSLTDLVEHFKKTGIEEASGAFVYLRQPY
The note with it: for remaining activity at 10 µM: read-out: percent of DMSO vehicle control.

Assay [10] addresses T10, PTPN6(SH2dom.N-term.) (Homo sapiens, UniProt P29350).
T10 construct: SH2dom.N-term. denotes SH2 domain closest to N-terminus of protein; made in house; host or cells: HEK293 (transient transfection, unpurified extract)
T10 sequence (P29350 4-100 limits assumed): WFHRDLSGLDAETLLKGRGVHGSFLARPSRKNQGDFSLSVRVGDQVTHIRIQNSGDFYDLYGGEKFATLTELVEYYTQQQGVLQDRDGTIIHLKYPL
The conditions noted are these: for remaining activity at 10 µM: read-out: percent of DMSO vehicle control.

Assay [11] addresses T11, RASA1(SH2dom.C-term.) (Homo sapiens, UniProt P20936).
T11 construct: SH2dom.C-term. denotes SH2 domain closest to C-terminus of protein; made in house; host or cells: HEK293 (transient transfection, unpurified extract)
T11 sequence (P20936 351-441 limits assumed): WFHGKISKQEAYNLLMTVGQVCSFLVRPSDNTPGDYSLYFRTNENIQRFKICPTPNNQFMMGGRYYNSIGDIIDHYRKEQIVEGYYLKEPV
The note with it: for remaining activity at 10 µM: read-out: percent of DMSO vehicle control.

In assay [12] the target is T12, SH2D6 (Homo sapiens, UniProt Q7Z4S9).
T12 construct: made in house; host or cells: HEK293 (transient transfection), unpurified extract
The note with it: for remaining activity at 10 µM: read-out: percent of DMSO vehicle control.

Assay [13] addresses T13, SHC1 (Homo sapiens, UniProt P29353).
T13 construct: made in house; host or cells: HEK293 (transient transfection), unpurified extract
T13 sequence (P29353 1-583): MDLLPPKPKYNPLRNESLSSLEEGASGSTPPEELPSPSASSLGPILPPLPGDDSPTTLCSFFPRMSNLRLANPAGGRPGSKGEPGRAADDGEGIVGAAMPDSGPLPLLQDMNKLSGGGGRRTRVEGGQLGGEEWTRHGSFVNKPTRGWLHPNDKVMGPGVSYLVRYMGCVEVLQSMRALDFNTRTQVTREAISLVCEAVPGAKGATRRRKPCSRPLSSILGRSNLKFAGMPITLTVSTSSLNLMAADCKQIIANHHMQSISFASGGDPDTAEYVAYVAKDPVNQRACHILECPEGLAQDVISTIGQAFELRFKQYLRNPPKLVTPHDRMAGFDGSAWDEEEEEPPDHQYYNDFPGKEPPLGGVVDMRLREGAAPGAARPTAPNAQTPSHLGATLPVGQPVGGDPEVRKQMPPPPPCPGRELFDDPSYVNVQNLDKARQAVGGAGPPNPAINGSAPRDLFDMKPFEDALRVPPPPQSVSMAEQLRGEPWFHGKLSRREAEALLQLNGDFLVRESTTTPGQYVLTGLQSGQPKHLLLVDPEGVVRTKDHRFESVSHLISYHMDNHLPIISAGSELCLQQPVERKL
The note with it: for remaining activity at 10 µM: read-out: percent of DMSO vehicle control.

Assay [14] has as its target T14, CISH (Homo sapiens, UniProt Q9NSE2).
T14 construct: the DNA-tagged SH2 domain concentrations used in this study were <0.1 nM; made in house; host or cells: HEK293 (transient transfection; unpurified extract)
T14 sequence (Q9NSE2 82-163 limits assumed): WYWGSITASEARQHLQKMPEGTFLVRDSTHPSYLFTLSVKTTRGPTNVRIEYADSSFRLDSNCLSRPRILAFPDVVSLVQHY
The conditions noted are these: for remaining activity at 10 µM: read-out: percent of DMSO vehicle control.

The target in assay [15] is T15, STAT3 (Homo sapiens, UniProt P40763).
T15 construct: made in house; host or cells: HEK293 (transient transfection), unpurified extract
The conditions noted are these: for percent of DMSO vehicle control at 10 µM: read-out: percent of DMSO vehicle control.

T1 sequence (P51451 124-220 limits assumed): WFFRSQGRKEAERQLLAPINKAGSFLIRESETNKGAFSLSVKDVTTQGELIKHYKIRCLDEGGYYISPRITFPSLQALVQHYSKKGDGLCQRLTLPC
T12 sequence (Q7Z4S9 whole entry): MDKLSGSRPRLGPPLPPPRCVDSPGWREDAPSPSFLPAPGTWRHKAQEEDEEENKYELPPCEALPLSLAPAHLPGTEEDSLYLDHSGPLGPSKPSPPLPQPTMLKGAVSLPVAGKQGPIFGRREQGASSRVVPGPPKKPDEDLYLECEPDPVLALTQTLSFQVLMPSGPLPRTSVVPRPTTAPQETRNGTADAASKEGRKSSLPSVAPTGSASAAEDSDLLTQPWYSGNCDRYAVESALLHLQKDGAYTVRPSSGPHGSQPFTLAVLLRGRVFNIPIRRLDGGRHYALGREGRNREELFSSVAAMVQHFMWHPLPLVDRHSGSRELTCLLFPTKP
T15 sequence (P40763 whole entry): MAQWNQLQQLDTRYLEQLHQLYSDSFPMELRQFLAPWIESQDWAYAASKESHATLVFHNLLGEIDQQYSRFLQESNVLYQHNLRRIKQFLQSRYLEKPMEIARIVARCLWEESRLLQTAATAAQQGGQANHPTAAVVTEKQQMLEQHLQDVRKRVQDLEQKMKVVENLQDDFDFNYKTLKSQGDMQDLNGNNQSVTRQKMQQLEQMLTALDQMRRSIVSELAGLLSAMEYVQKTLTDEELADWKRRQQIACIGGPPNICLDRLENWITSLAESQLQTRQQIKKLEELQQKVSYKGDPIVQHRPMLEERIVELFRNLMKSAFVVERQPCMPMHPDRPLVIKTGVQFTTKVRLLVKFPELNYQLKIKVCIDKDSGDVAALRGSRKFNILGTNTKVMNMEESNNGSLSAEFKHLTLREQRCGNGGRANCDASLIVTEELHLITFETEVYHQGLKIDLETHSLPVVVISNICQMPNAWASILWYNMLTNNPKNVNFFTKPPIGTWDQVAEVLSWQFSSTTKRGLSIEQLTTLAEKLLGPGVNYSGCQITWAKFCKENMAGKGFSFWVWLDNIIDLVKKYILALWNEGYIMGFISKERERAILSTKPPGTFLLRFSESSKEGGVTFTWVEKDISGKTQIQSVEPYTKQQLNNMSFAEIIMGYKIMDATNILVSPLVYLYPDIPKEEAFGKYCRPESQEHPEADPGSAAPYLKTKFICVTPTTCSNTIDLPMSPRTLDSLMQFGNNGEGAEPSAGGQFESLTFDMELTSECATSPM
T3 sequence (Q13191 241-343 limits assumed): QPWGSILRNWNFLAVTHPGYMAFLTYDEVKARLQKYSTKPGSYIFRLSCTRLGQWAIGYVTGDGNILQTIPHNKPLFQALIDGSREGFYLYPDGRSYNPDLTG
T7 sequence (P27986 333-428 limits assumed): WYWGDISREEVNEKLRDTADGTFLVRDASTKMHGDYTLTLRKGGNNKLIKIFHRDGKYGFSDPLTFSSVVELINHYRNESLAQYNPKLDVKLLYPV

Regarding `CC[C@H](C)[C@H](NC(=O)[C@H](CCC(=O)O)NC(=O)[C@H](CCC(=O)O)NC(=O)[C@H](Cc1ccc(OP(=O)(O)O)cc1)NC(C)=O)C(=O)N[C@@H](CCC(=O)O)C(N)=O` [Ac-pYEEIE-NH2] (Ac-[pY]EEIE-NH2), the “percent of DMSO vehicle control” value worked out at 47.8% in assay [1] (primary screen, 10 μM); 118.9% in assay [2] (primary screen, 10 μM); 116.1% in assay [3]; 115.5% in assay [4] (primary screen, 10 μM); 56.1±7.2% in assay [5] (primary screen, 10 μM); 74.9% in assay [6] (primary screen, 10 μM). Moreover, the “percent of DMSO vehicle control” value in [7] (primary screen, 10 μM) is on record as 87.7%; in assay [8] (primary screen, 10 μM) it was 42.1%; in [9] (primary screen, 10 μM) it was 110.0%; in assay [10] (primary screen, 10 μM), 163.9%; in [11] (primary screen, 10 μM) it was 119.3%; in assay [12] (primary screen, 10 μM), 100.6%. Further, the “percent of DMSO vehicle control” value stood at 105.0% in assay [13] (primary screen, 10 μM); 131.9% in assay [14] (primary screen, 10 μM); 151.4% in [15] (primary screen, 10 μM).

With `CC(=O)N[C@@H](Cc1ccc(CP(=O)(O)O)cc1)C(=O)NC1(C(=O)N[C@@H](CC(N)=O)C(=O)NCCCc2c(O)ccc3ccccc23)CCCCC1` [CGP78850], the remaining activity at 10 µM in assay [1] is 42.1 ± 4.6%; in [2], 117 ± 7.1%; in [5] it was 45.5 ± 1.4%; in assay [6], 111 ± 23.7%; in assay [7] it was 109 ± 5.7%; in assay [8], 109 ± 14.6%. Further, the remaining activity at 10 µM in assay [9] came to 130.9 ± 0.8%; in assay [10], 112 ± 9.8%; in [11], 131 ± 42.7%; in [12] it was 89.5 ± 8.4%; in assay [13], 49.8 ± 6.2%; in [14], 117 ± 15.1%. Further, in assay [3], the “percent of DMSO vehicle control” value was found to be 122.1±4.2%. Moreover, the percent of DMSO vehicle control at 10 µM in assay [4] turned out to be 42 ± 2.5%; in [15] it was 80.9 ± 6.4%.

`CC[C@H](C)[C@H](NC(=O)[C@H](CCC(=O)O)NC(=O)[C@H](CCC(=O)O)NC(=O)[C@H](Cc1ccc(OP(=O)(O)O)cc1)NC(=O)/C=C/c1ccc(O)c(O)c1)C(=O)N[C@@H](CCC(=O)O)C(=O)O` [Caffeic acid-pYEEIE] (Caffeoyl-[pY]EEIE-OH): the Kd in assay [1] came to 1.5 ± 0.69 nM; in [2], 240 ± 24 nM; in [3], 5700 ± 1400 nM; in [5], 1200 ± 920 nM; in assay [6], 210 ± 59 nM; in [7], 140 ± 17 nM. For the same molecule, the Kd in assay [8] was found to be 180 ± 200 nM; in assay [12] it was 14500 ± 2890 nM; in assay [13], 320 ± 280 nM; in assay [14] it was 430 ± 980 nM. Moreover, the remaining activity at 10 µM in assay [1] was found to be 0.1%; in assay [2], 3.2 ± 0.6%; in assay [5], 0%; in assay [6] it was 2.8 ± 3.1%; in assay [7] it was 0.7 ± 0.1%; in assay [8], 0.3%. Further, the remaining activity at 10 µM turned out to be 114 ± 11% in assay [9]; 118 ± 19.5% in [10]; 78 ± 6.4% in assay [11]; 36.4 ± 4.5% in assay [12]; 0% in assay [13]; 4.9 ± 6.9% in [14]. In [3], the “percent of DMSO vehicle control” value is reported as 32.7±22.6%. The percent of DMSO vehicle control at 10 µM was determined as 94.8% in assay [4] and 102 ± 22.8% in assay [15].
